From patent US20260152487A1 (Sitryx Therapeutics Limited, priority 2021, published 2026)
Read-outs that look alike come from different tables or passages of the source.

Target: T1, recombinant human PKM2 (Homo sapiens, UniProt P14618)
T1 construct: His (N); purchased R&D Systems
Test: Human PKM2 activation assay (Kinase-Glo Plus luminescent detection of generated ATP)
Type: biochemical
Conditions: for Emax: read-out: hPKM2 Emax; for EC50: 4-parameter logistic fit
Method in brief: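 N-His-tagged recombinant hPKM2 ([…]) with PEP and ADP was incubated with compound for 60 min at 26 °C, shaking, in 50 mM imidazole, 50 mM KCl, 7 mM MgCl2, 0.01% Tween20, 0.05% BSA, pH 7.2. ATP produced was read by Kinase-Glo Plus luminescence after 15 min.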

[1] = percentage activation normalised to DMSO vehicle (LOW) and 5 μM TEPP-46 (HIGH)
[2] = recombinant human PKM2 activation, read-out: hPKM2 EC50

T1 sequence (P14618 2-531 limits assumed): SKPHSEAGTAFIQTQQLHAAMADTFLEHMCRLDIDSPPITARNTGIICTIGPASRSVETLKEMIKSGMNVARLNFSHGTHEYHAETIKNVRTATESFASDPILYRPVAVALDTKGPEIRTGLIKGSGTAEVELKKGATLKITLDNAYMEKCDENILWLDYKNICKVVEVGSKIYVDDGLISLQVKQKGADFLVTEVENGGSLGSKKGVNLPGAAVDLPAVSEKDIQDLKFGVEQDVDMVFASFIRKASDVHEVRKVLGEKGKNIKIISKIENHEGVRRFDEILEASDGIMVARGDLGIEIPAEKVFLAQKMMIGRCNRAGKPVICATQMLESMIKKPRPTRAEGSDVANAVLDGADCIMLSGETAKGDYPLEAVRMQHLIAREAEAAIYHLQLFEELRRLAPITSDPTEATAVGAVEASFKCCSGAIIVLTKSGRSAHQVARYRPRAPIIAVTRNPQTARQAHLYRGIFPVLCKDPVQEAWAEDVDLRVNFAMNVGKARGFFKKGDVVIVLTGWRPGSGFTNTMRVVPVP

Row | Emax [1] [%] | EC50 [2] [nM] | SMILES | EC50 (hPKM2 EC50, recombinant human PKM2 activation) [nM] | Emax [%]
1 | 94.2 | 106 | COc1ccc(Cn2ncc3cc(S(=O)(=O)c4csc(C)n4)ccc3c2=O)cn1 [Example 174, 2-((6-methoxypyridin-3-yl)methyl)-6-(2-methylthiazol-4-ylsulfonyl)phthalazin-1(2H)-one] | – | –
2 | 97.2 | 71.2 | COc1ccc(Cn2ncc3cc(S(=O)(=O)c4ccc(OC)nc4)ccc3c2=O)cn1 [Example 175, 2-((6-methoxypyridin-3-yl)methyl)-6-(6-methoxypyridin-3-ylsulfonyl)phthalazin-1(2H)-one] | – | –
3 | 95.8 | 455 | COc1ccc(Cn2ncc3cc(S(=O)(=O)c4cccc5sc(C)nc45)ccc3c2=O)cn1 [Example 176, 2-((6-methoxypyridin-3-yl)methyl)-6-(2-methylbenzo[d]thiazol-4-ylsulfonyl)phthalazin-1(2H)-one] | – | –
4 | 79 | 209 | COc1ccc(Cn2ncc3cc(S(=O)(=O)c4cnc(OC)cn4)ccc3c2=O)cn1 [Example 177, 6-(5-methoxypyrazin-2-ylsulfonyl)-2-((6-methoxypyridin-3-yl)methyl)phthalazin-1(2H)-one] | – | –
5 | 89.7 | 56.1 | COc1ccc(Cn2ncc3cc(S(=O)(=O)c4ccn(C(F)F)n4)ccc3c2=O)cn1 [Example 179, 6-(1-(difluoromethyl)-1H-pyrazol-3-ylsulfonyl)-2-((6-methoxypyridin-3-yl)methyl)phthalazin-1(2H)-one] | – | –
6 | 80.2 | 15.2 | COc1ccc(Cn2ncc3cc(S(=O)(=O)c4ccc5c(c4)OCCO5)ccc3c2=O)cn1 [Example 182, 6-((2,3-dihydrobenzo[b][1,4]dioxin-6-yl)sulfonyl)-2-((6-methoxypyridin-3-yl)methyl)phthalazin-1(2H)-one] | – | –
7 | 79.7 | 47.2 | COc1ccc(Cn2ncc3cc(S(=O)(=O)c4cnc5c(c4)CCO5)ccc3c2=O)cn1 [Example 183, 6-((2,3-dihydrofuro[2,3-b]pyridin-5-yl)sulfonyl)-2-((6-methoxypyridin-3-yl)methyl)phthalazin-1(2H)-one] | – | –
8 | 59.6 | 638 | COc1ccc(Cn2ncc3cc(S(=O)(=O)c4ccn5ccnc5c4)ccc3c2=O)cn1 [Example 184, 6-(imidazo[1,2-a]pyridin-7-ylsulfonyl)-2-((6-methoxypyridin-3-yl)methyl)phthalazin-1(2H)-one] | – | –
9 | 66 | 739 | COc1ccc(Cn2ncc3cc(S(=O)(=O)c4cn(C)c(C)n4)ccc3c2=O)cn1 [Example 185, 6-(1,2-dimethyl-1H-imidazol-4-ylsulfonyl)-2-((6-methoxypyridin-3-yl)methyl)phthalazin-1(2H)-one] | – | –
10 | 102 | 225 | COc1ccc(Cn2ncc3cc(S(=O)(=O)c4cnn(C)c4C)ccc3c2=O)cn1 [Example 190, 6-(1,5-dimethyl-1H-pyrazol-4-ylsulfonyl)-2-((6-methoxypyridin-3-yl)methyl)phthalazin-1(2H)-one] | – | –
11 | – | – | COc1ccc(Cn2ncc3cc(S(=O)(=O)c4cn[nH]c4)ccc3c2=O)cn1 [Example 197, 6-((1H-pyrazol-4-yl)sulfonyl)-2-((6-methoxypyridin-3-yl)methyl)phthalazin-1(2H)-one] | 153 | 94.5
12 | 74 | 100 | Cn1ccc(S(=O)(=O)c2ccc3c(=O)n(Cc4cccc(OC(F)F)c4)ncc3c2)n1 [Example 198, 2-(3-(difluoromethoxy)benzyl)-6-((1-methyl-1H-pyrazol-3-yl)sulfonyl)phthalazin-1(2H)-one] | – | –
13 | 91.4 | 109 | COc1ccc(F)c(Cn2ncc3cc(S(=O)(=O)c4ccn(C)n4)ccc3c2=O)c1 [Example 199, 2-(2-fluoro-5-methoxybenzyl)-6-((1-methyl-1H-pyrazol-3-yl)sulfonyl)phthalazin-1(2H)-one] | – | –
14 | 80.2 | 621 | Cn1cc(S(=O)(=O)c2ccc3c(=O)n(Cc4cccnc4O)ncc3c2)cn1 [Example 200, 2-((2-hydroxypyridin-3-yl)methyl)-6-((1-methyl-1H-pyrazol-4-yl)sulfonyl)phthalazin-1(2H)-one] | – | –
15 | 122 | 282 | Cc1cccc(Cn2ncc3cc(S(=O)(=O)c4cnn(C)c4)ccc3c2=O)n1 [Example 204, 6-((1-methyl-1H-pyrazol-4-yl)sulfonyl)-2-((6-methylpyridin-2-yl)methyl)phthalazin-1(2H)-one] | – | –
16 | 104 | 33.3 | Cc1c[nH]nc1Cn1ncc2cc(S(=O)(=O)c3ccc4c(c3)CCO4)ccc2c1=O [Example 208, 6-((2,3-dihydrobenzofuran-5-yl)sulfonyl)-2-((4-methyl-1H-pyrazol-3-yl)methyl)phthalazin-1(2H)-one] | – | –
17 | 118 | 23.2 | Cc1cc(Cn2ncc3cc(S(=O)(=O)c4ccc5c(c4)CCO5)ccc3c2=O)n[nH]1 [Example 209, 6-((2,3-dihydrobenzofuran-5-yl)sulfonyl)-2-((5-methyl-1H-pyrazol-3-yl)methyl)phthalazin-1(2H)-one] | – | –

Row | Emax [1] [%] | EC50 [2] [nM] | SMILES | EC50 (hPKM2 EC50, recombinant human PKM2 activation) [nM] | Emax [%]
18 | 87.4 | 318 | Cn1ccc(S(=O)(=O)c2ccc3c(=O)n(Cc4ccccc4C(N)=O)ncc3c2)n1 [Example 210, 2-((6-(1-methyl-1H-pyrazol-3-ylsulfonyl)-1-oxophthalazin-2(1H)-yl)methyl)benzamide] | – | –
19 | 80.7 | 222 | O=c1c2ccc(S(=O)(=O)c3ccccn3)cc2cnn1Cc1cc[nH]n1 [Example 211, 2-((1H-pyrazol-3-yl)methyl)-6-(pyridin-2-ylsulfonyl)phthalazin-1(2H)-one] | – | –
20 | 108 | 23.8 | Cn1ccc(Cn2ncc3cc(S(=O)(=O)c4ccc(OC(F)F)cc4)ccc3c2=O)n1 [Example 212, 6-((4-(difluoromethoxy)phenyl)sulfonyl)-2-((1-methyl-1H-pyrazol-3-yl)methyl)phthalazin-1(2H)-one] | – | –
21 | 107 | 36.5 | CC1Cc2cc(S(=O)(=O)c3ccc4c(=O)n(Cc5ccn(C)n5)ncc4c3)ccc2O1 (stereo not drawn) [Example 213, 2-((1-methyl-1H-pyrazol-3-yl)methyl)-6-((2-methyl-2,3-dihydrobenzofuran-5-yl)sulfonyl)phthalazin-1(2H)-one] | – | –
22 | 102 | 254 | Cc1nc(S(=O)(=O)c2ccc3c(=O)n(Cc4ccn(C)n4)ncc3c2)cs1 [Example 214, 2-((1-methyl-1H-pyrazol-3-yl)methyl)-6-((2-methylthiazol-4-yl)sulfonyl)phthalazin-1(2H)-one] | – | –
23 | 93.4 | 25.2 | Cn1ccc(Cn2ncc3cc(S(=O)(=O)c4ccc5c(c4)OCCO5)ccc3c2=O)n1 [Example 215, 6-((2,3-dihydrobenzo[b][1,4]dioxin-6-yl)sulfonyl)-2-((1-methyl-1H-pyrazol-3-yl)methyl)phthalazin-1(2H)-one] | – | –
24 | 103 | 74.3 | CCOc1ccc(S(=O)(=O)c2ccc3c(=O)n(Cc4ccn(C)n4)ncc3c2)cc1 [Example 216, 6-((4-ethoxyphenyl)sulfonyl)-2-((1-methyl-1H-pyrazol-3-yl)methyl)phthalazin-1(2H)-one] | – | –
25 | 115 | 60.2 | C[C@@H]1Cc2cc(S(=O)(=O)c3ccc4c(=O)n(Cc5ccn(C)n5)ncc4c3)ccc2O1 [Example 217, (R)-2-((1-methyl-1H-pyrazol-3-yl)methyl)-6-((2-methyl-2,3-dihydrobenzofuran-5-yl)sulfonyl)phthalazin-1(2H)-one] | – | –
26 | 116 | 192 | Cn1ccc(Cn2ncc3cc(S(=O)(=O)c4ccc(OC(F)(F)F)cc4)ccc3c2=O)n1 [Example 218, 20((1-methyl-1H-pyrazol-3-yl)methyl)-6-((4-(trifluoromethoxy)phenyl)sulfonyl)phthalazin-1(2H)-one] | – | –
27 | 84.7 | 67.7 | Cc1coc2ccc(S(=O)(=O)c3ccc4c(=O)n(Cc5cc[nH]n5)ncc4c3)cc12 [Example 220, 2-((1H-pyrazol-3-yl)methyl)-6-((3-methylbenzofuran-5-yl)sulfonyl)phthalazin-1(2H)-one] | – | –
28 | 115 | 136 | O=c1c2ccc(S(=O)(=O)c3ccc4ccoc4c3)cc2cnn1Cc1cc[nH]n1 [Example 222, 2-((1H-pyrazol-3-yl)methyl)-6-(benzofuran-6-ylsulfonyl)phthalazin-1(2H)-one] | – | –
29 | 121 | 43.6 | Cc1cc2cc(S(=O)(=O)c3ccc4c(=O)n(Cc5cc[nH]n5)ncc4c3)ccc2o1 [Example 224, 2-((1H-pyrazol-3-yl)methyl)-6-((2-methylbenzofuran-5-yl)sulfonyl)phthalazin-1(2H)-one] | – | –
30 | 114 | 356 | O=c1c2ccc(S(=O)(=O)c3ccc4[nH]ccc4c3)cc2cnn1Cc1cc[nH]n1 [Example 226, 6-((1H-indol-5-yl)sulfonyl)-2-((1H-pyrazol-3-yl)methyl)phthalazin-1(2H)-one] | – | –
31 | 115 | 35.4 | O=c1c2ccc(S(=O)(=O)c3ccc4sccc4c3)cc2cnn1Cc1cc[nH]n1 [Example 227, 2-((1H-pyrazol-3-yl)methyl)-6-(benzo[b]thiophen-5-ylsulfonyl)phthalazin-1(2H)-one] | – | –
32 | 94.7 | 44.9 | O=c1c2ccc(S(=O)(=O)c3ccc4c(n3)OCCO4)cc2cnn1Cc1cc[nH]n1 [Example 229, 2-((1H-pyrazol-3-yl)methyl)-6-((2,3-dihydro-[1,4]dioxino[2,3-b]pyridin-6-yl)sulfonyl)phthalazin-1(2H)-one] | – | –
33 | 118 | 183 | O=c1c2ccc(S(=O)(=O)c3cc4c(cn3)OCCO4)cc2cnn1Cc1cc[nH]n1 [Example 230, 2-((1H-pyrazol-3-yl)methyl)-6-((2,3-dihydro-[1,4]dioxino[2,3-c]pyridin-7-yl)sulfonyl)phthalazin-1(2H)-one] | – | –
